Activity calls are given as the source filed them. On the calls: in the data inactive means no Kd found up to 30 µM.
target: Obg-like ATPase 1 (Homo sapiens, UniProt Q9NTK5)
Sequence (Q9NTK5 whole entry, looked up): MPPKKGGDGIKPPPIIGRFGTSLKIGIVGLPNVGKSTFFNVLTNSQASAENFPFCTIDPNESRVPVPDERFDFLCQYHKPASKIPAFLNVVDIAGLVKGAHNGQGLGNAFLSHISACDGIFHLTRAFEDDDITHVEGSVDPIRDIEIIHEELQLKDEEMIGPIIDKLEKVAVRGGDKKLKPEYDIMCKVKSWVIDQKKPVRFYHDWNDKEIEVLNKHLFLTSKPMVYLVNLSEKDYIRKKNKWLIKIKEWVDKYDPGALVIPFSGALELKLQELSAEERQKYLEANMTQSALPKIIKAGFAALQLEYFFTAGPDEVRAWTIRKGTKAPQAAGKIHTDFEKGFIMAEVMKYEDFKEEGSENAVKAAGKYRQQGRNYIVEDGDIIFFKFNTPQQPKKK

Compound	Kd
COC(=O)N[C@@H](C)CNc1nccc(-c2cn(C(C)C)nc2-c2cc(Cl)cc(NS(C)(=O)=O)c2F)n1 [ENCORAFENIB]	> 30 µM (inactive)
Cc1cc(Nc2cc(N3CCN(C)CC3)nc(/C=C/c3ccccc3)n2)n[nH]1 [ENMD-2076]	> 30 µM (inactive)

target: T1, Eukaryotic translation initiation factor 5B (Homo sapiens, UniProt O60841)
T1 sequence (O60841 whole entry): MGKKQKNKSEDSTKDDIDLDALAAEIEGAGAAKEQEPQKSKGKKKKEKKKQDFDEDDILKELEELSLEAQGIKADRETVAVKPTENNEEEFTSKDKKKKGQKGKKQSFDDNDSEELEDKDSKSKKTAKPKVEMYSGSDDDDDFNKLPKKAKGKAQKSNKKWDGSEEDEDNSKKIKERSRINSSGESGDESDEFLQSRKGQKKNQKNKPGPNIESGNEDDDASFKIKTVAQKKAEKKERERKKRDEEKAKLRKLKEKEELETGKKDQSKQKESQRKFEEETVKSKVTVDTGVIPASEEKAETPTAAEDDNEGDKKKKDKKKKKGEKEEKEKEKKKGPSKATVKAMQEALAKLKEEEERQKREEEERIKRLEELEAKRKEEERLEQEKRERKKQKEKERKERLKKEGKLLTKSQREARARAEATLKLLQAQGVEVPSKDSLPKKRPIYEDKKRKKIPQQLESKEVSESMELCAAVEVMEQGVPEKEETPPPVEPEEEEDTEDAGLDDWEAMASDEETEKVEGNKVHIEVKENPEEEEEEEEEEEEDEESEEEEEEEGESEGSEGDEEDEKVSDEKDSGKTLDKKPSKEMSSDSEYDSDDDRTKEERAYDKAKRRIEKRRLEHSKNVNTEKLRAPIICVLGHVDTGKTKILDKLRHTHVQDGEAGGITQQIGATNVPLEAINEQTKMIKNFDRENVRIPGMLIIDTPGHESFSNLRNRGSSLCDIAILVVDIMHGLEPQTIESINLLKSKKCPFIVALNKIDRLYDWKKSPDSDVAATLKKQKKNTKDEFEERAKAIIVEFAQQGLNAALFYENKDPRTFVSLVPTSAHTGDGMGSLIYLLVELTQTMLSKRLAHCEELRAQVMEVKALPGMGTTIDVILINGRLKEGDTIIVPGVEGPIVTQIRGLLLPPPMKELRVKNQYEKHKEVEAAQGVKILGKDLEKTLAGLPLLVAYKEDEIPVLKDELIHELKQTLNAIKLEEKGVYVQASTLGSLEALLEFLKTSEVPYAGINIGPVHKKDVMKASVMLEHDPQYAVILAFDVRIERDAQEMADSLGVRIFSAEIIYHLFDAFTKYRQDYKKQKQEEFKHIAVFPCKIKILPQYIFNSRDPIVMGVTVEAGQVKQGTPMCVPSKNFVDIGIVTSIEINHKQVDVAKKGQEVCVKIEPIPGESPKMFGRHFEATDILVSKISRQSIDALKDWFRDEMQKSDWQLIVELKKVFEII

Compound	Kd
COC(=O)N[C@@H](C)CNc1nccc(-c2cn(C(C)C)nc2-c2cc(Cl)cc(NS(C)(=O)=O)c2F)n1 [ENCORAFENIB]	> 30 µM (inactive)
Cc1cc(Nc2cc(N3CCN(C)CC3)nc(/C=C/c3ccccc3)n2)n[nH]1 [ENMD-2076]	> 30 µM (inactive)

target: Serine/threonine-protein kinase 24 (Homo sapiens, UniProt Q9Y6E0)
Sequence (Q9Y6E0 whole entry): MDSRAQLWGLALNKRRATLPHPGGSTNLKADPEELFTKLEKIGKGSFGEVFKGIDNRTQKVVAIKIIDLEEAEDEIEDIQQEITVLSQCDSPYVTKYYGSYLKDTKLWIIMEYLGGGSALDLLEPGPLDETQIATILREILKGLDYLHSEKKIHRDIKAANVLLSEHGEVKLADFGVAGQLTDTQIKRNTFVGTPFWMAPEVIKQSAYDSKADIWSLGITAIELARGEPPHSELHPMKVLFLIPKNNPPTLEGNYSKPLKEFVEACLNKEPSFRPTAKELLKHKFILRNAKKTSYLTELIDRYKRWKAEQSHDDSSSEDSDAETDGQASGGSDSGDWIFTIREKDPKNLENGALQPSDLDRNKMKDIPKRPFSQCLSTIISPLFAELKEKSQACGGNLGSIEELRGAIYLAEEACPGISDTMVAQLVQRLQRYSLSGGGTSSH

Compound	Kd
COC(=O)N[C@@H](C)CNc1nccc(-c2cn(C(C)C)nc2-c2cc(Cl)cc(NS(C)(=O)=O)c2F)n1 [ENCORAFENIB]	> 30 µM (inactive)
Cc1cc(Nc2cc(N3CCN(C)CC3)nc(/C=C/c3ccccc3)n2)n[nH]1 [ENMD-2076]	> 30 µM (inactive)

target: T2, ATP-dependent RNA helicase DHX30 (Homo sapiens, UniProt Q7L2E3)
T2 sequence (Q7L2E3 whole entry): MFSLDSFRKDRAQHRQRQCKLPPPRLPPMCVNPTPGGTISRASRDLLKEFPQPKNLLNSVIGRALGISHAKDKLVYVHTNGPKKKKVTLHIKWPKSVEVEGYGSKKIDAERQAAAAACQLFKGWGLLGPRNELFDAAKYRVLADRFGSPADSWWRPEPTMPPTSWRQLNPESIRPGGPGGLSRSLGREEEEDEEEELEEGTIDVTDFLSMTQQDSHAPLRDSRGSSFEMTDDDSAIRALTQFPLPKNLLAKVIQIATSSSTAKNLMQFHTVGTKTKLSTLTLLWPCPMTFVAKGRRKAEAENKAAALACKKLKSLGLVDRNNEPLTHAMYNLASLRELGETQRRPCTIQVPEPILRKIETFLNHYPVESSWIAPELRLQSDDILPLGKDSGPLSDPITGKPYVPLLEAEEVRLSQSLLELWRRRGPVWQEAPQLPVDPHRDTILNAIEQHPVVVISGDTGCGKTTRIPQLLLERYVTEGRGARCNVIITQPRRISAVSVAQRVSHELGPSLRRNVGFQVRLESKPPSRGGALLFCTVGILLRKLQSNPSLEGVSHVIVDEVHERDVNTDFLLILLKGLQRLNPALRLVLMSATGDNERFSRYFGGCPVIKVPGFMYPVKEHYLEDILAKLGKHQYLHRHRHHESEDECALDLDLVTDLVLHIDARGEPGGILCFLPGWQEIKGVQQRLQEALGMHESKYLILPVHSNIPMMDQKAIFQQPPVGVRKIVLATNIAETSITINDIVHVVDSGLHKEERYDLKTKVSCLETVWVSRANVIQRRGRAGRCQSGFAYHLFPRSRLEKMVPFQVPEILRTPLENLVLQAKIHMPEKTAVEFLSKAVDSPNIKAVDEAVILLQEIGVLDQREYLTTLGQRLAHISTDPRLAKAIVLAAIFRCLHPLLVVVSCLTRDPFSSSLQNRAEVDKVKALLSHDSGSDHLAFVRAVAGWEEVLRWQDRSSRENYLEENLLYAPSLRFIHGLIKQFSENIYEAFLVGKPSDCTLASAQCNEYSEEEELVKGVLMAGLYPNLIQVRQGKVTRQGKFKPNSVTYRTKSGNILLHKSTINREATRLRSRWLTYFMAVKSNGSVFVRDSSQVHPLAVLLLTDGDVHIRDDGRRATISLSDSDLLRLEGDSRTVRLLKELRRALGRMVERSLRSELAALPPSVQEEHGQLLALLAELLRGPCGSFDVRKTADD

Compound	Kd
COC(=O)N[C@@H](C)CNc1nccc(-c2cn(C(C)C)nc2-c2cc(Cl)cc(NS(C)(=O)=O)c2F)n1 [ENCORAFENIB]	> 30 µM (inactive)
Cc1cc(Nc2cc(N3CCN(C)CC3)nc(/C=C/c3ccccc3)n2)n[nH]1 [ENMD-2076]	> 30 µM (inactive)

target: G protein-coupled receptor kinase 6 (Homo sapiens, UniProt P43250)
Sequence (P43250 whole entry): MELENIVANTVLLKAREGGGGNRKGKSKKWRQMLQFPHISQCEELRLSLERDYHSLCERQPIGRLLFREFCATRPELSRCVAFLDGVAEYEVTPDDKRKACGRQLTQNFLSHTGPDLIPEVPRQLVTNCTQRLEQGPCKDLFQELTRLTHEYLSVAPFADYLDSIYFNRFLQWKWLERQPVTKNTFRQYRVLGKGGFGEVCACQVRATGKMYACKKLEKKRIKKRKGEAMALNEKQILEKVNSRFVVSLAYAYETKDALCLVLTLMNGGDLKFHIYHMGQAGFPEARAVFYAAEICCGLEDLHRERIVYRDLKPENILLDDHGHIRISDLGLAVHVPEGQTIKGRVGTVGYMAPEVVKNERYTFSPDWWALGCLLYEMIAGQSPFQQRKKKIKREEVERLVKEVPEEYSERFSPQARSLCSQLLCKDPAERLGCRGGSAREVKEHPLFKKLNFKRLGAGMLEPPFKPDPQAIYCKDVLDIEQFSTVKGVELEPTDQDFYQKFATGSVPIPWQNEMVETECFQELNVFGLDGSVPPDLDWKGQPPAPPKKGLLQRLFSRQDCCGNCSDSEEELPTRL

Compound	Kd
COC(=O)N[C@@H](C)CNc1nccc(-c2cn(C(C)C)nc2-c2cc(Cl)cc(NS(C)(=O)=O)c2F)n1 [ENCORAFENIB]	> 30 µM (inactive)
Cc1cc(Nc2cc(N3CCN(C)CC3)nc(/C=C/c3ccccc3)n2)n[nH]1 [ENMD-2076]	> 30 µM (inactive)

target: Myosin-10 (Homo sapiens, UniProt P35580)

Compound	Kd
COC(=O)N[C@@H](C)CNc1nccc(-c2cn(C(C)C)nc2-c2cc(Cl)cc(NS(C)(=O)=O)c2F)n1 [ENCORAFENIB]	> 30 µM (inactive)
Cc1cc(Nc2cc(N3CCN(C)CC3)nc(/C=C/c3ccccc3)n2)n[nH]1 [ENMD-2076]	> 30 µM (inactive)

target: T3, Adenine phosphoribosyltransferase (Homo sapiens, UniProt P07741)
T3 sequence (P07741 whole entry): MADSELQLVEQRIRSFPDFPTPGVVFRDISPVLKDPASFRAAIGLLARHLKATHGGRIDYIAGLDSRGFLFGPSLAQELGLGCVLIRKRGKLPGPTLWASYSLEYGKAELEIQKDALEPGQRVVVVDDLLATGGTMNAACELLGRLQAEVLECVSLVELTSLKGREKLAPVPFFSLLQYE

Compound	Kd
COC(=O)N[C@@H](C)CNc1nccc(-c2cn(C(C)C)nc2-c2cc(Cl)cc(NS(C)(=O)=O)c2F)n1 [ENCORAFENIB]	> 30 µM (inactive)
Cc1cc(Nc2cc(N3CCN(C)CC3)nc(/C=C/c3ccccc3)n2)n[nH]1 [ENMD-2076]	> 30 µM (inactive)

target: Dual specificity testis-specific protein kinase 2 (Homo sapiens, UniProt Q96S53)
Sequence (Q96S53 whole entry): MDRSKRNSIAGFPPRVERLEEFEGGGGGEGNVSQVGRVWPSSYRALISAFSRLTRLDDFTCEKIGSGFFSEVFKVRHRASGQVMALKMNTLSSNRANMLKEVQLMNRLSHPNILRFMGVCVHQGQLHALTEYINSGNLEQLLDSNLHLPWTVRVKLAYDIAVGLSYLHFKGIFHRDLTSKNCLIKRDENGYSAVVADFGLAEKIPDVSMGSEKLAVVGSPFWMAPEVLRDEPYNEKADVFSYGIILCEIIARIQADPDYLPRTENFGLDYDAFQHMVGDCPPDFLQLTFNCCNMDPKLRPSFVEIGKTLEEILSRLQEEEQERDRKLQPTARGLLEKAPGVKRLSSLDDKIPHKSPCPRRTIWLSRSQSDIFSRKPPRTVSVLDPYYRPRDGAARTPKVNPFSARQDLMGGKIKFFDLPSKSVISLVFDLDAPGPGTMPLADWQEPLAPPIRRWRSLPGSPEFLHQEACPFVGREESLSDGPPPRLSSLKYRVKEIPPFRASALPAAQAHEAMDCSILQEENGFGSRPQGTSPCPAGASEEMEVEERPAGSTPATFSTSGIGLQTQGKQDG

Compound	Kd
COC(=O)N[C@@H](C)CNc1nccc(-c2cn(C(C)C)nc2-c2cc(Cl)cc(NS(C)(=O)=O)c2F)n1 [ENCORAFENIB]	> 30 µM (inactive)
Cc1cc(Nc2cc(N3CCN(C)CC3)nc(/C=C/c3ccccc3)n2)n[nH]1 [ENMD-2076]	> 30 µM (inactive)

target: Uncharacterized aarF domain-containing protein kinase 5 (Homo sapiens, UniProt Q3MIX3)
Sequence (Q3MIX3 whole entry, the tested form may be a part): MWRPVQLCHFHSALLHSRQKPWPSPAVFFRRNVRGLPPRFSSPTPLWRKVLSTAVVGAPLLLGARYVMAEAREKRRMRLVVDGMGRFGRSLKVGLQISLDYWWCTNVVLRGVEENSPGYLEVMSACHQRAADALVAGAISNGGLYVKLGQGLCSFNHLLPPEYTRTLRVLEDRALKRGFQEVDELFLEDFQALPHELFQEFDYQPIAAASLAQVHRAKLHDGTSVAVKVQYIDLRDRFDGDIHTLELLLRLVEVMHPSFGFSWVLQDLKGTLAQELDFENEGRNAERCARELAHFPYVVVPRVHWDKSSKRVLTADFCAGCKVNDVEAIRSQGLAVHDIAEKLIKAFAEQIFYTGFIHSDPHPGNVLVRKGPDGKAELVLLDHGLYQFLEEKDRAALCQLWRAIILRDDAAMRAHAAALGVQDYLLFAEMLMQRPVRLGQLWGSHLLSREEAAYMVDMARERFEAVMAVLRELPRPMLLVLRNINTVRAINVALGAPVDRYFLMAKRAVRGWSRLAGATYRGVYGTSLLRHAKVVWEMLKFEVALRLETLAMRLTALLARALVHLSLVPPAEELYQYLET

Compound	Kd
COC(=O)N[C@@H](C)CNc1nccc(-c2cn(C(C)C)nc2-c2cc(Cl)cc(NS(C)(=O)=O)c2F)n1 [ENCORAFENIB]	> 30 µM (inactive)
Cc1cc(Nc2cc(N3CCN(C)CC3)nc(/C=C/c3ccccc3)n2)n[nH]1 [ENMD-2076]	> 30 µM (inactive)

target: PAS domain-containing serine/threonine-protein kinase (Homo sapiens, UniProt Q96RG2)
Sequence (Q96RG2 whole entry, the tested form may be a part): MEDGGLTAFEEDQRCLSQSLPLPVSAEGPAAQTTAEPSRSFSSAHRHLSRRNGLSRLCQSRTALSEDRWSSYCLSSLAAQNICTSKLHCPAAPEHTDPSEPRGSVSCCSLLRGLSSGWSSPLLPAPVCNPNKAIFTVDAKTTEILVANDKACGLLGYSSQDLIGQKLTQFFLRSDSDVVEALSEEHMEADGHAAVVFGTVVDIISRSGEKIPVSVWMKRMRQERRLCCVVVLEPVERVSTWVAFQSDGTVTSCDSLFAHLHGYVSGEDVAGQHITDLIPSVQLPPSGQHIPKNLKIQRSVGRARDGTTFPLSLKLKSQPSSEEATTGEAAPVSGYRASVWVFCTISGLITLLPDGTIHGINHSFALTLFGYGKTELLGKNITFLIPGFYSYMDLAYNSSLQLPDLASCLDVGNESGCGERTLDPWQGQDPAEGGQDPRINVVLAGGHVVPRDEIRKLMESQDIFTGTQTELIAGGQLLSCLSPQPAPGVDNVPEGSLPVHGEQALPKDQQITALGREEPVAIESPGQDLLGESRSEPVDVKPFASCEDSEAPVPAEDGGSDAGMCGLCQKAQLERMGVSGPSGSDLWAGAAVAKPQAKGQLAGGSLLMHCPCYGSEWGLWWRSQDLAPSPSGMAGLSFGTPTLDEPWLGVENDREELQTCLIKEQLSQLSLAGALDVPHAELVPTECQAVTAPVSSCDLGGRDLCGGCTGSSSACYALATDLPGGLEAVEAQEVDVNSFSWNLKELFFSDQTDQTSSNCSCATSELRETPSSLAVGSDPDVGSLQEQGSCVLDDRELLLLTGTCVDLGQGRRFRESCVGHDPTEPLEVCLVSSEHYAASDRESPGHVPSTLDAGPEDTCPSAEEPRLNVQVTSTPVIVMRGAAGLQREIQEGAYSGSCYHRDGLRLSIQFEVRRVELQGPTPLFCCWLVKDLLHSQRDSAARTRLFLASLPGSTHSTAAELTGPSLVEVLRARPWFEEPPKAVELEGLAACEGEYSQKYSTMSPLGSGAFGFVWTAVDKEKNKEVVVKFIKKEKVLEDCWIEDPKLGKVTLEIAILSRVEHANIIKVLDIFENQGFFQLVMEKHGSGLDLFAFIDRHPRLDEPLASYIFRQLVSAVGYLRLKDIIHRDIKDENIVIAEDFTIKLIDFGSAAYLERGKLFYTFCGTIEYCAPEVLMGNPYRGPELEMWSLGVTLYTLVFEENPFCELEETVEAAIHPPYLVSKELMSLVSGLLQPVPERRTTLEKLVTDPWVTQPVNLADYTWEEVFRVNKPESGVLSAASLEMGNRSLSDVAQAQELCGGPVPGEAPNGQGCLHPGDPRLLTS

Compound	Kd
COC(=O)N[C@@H](C)CNc1nccc(-c2cn(C(C)C)nc2-c2cc(Cl)cc(NS(C)(=O)=O)c2F)n1 [ENCORAFENIB]	> 30 µM (inactive)
Cc1cc(Nc2cc(N3CCN(C)CC3)nc(/C=C/c3ccccc3)n2)n[nH]1 [ENMD-2076]	> 30 µM (inactive)
